Values quoted from earlier work as cited in patent US20040024041A1, “Dermal therapeutic system containing non-steroidal antiphlogistics with selective cox-2 inhibition” (priority 2000, published 2004).

What was measured:
[1] = patients receiving rofecoxib therapy vs patients receiving other non-steroidal anti-inflammatory drugs as comparison substance

CS(=O)(=O)c1ccc(C2=C(c3ccccc3)C(=O)OC2)cc1 [rofecoxib, 3-phenyl-4-[4-methylsulfonylphenyl]-2-(5H)furanone]
perforations, ulcers and bleeds in the upper gastrointestinal tract [1]: significantly fewer | percentage of patients with endoscopically detectable gastroduodenal ulcers (after 12 weeks of treatment, rofecoxib 25 or 50 mg/day vs placebo): comparable percentage | cumulative incidence of gastroduodenal ulcers (over 12 and 24 weeks, respectively, vs ibuprofen 2 400 mg/day): significantly less
